Legend:
Format in all cases: in vivo
Reg I = assay: Real-time RT-PCR of growth factor expression: Reg I; settings: quantitative real-time PCR; versus non drug treated mice
Description: Real-time RT-PCR assay of growth factors and cytokine expression profiles Total RNAs were extracted from a sample of whole stomach from each animal with Trizol (Invitrogen, Calif.) and five micrograms of total RNA were used for first strand cDNA synthesis using Superscript II cDNA amplification System (Invitrogen, Calif.) following manufacturer's instructions. Real-time PCR was performed as above using RT-PCR primers for each gene as listed below. All primers were designed using Lasergene ver5.0 software (DNASTAR inc., Madison, Wis.). Results were calculated by minus delta delta threshold cycle (-ΔΔCt) method (Livak, K. J. et al., 2001). Briefly, the threshold cycle Ct1 of each sample reaction was deducted from the threshold cycle Ct2 of GAPDH reaction for normalization, and then deducted from the threshold cycle Ct3 of calibration control (45 cycles in this experiment), i.e., the final result was represented by the formula; Ct3-(Ct1-Ct2). […]

[1] = test system: H. felis-infected INS-GAS mice; assay: Maximal gastric acid output by pyloric ligation; settings: 3 months treatment; for Reduction of gastric acid output: acid secretion over 4 hours
Description: (§1) Mice in group III were treated orally with the histamine H2 receptor antagonist loxtidine (in drinking water) at a dose of 0.5 g/L, while group IV mice received both drugs. For the 3 months drug study of inhibitory effects on maximal acid secretion, gastric atrophy, hyperplasia and dysplasia, 8 mice were prepared for each group. For the 6 months drug study of inhibitory effects on gastric carcinogenesis, 17 mice were prepared for each group.
The pyloric ligation method was used to measure maximal acid secretion as previously described (Chen, D. et al., 2004). Briefly, mice were fasted overnight and anesthetized by isoflurane inhalation. The abdomen was incised by midline celiotomy, the pylorus ligated firmly, and the abdomen closed with surgical sutures. After 4 hours, the mice were euthanized and gastric juice collected. The acidity of gastric juice was measured with a pH meter (AR 25; Fisher Scientific, Houston, Tex.) by 0.01 N NaOH titration and results expressed as μEq.

[2] = test system: H. felis-infected INS-GAS mice; assay: Gastric mucosa histological evaluation and scoring; settings: for Corpus histological score: Atrophy / Corpus histological score: Dysplasia / Corpus histological score: Hyperplasia / Corpus histological score: Inflammation: scale 0 to 4, mean ± SD
Description: The insulin-gastrin (INS-GAS) transgenic mice (FVB/N background) have been described previously (Wang, T. C. et al., 2000; Wang T. C. et al., 1993) and were free of specific pathogens. Animals were housed in microisolator, solid-bottomed polycarbonate cages, fed a commercially prepared pelleted diet, and given water ad libitum. One hundred twenty four (124) male INS-GAS mice at 2 or 3 months of age were inoculated with Helicobacter felis (ATCC 49179) as previously described (Wang, T. C. et al., 2000). Infection status was confirmed at 14 weeks and 26 weeks post inoculation by enzyme-linked immunosorbent assay (ELISA) to measure immunoglobulin IgG antibody to H. felis, and by quantitative real-time PCR assays of gastric corpus tissue at necropsy as described below. All experiments were approved by the Institutional Animal Care and Use Committee of University of Massachusetts Medical School.
as §1
The proton pump inhibitor omeprazole was purchased from Sigma (St. Louis Mo.) and dissolved in dimethylsulfoxide (DMSO)/PEG300, a 1:1 mixture at the concentration of 40 mg/ml, and injected intraperitoneally daily at the dose of […] (=350 micromole/kg) for 3 months. Twenty four (24) mice were divided into four groups. Mice in group A were controls treated with vehicle only, whereas group B mice were treated with omeprazole alone. Group C and D mice were treated with combination of omeprazole and YF476 or loxtidine, respectively.
At necropsy, linear strips extending from the squamocolumnar junction through the proximal duodenum were fixed in 10% neutral-buffered formalin, paraffin-embedded, cut at 5 microns, and stained with hematoxylin and eosin. Indices of injury in the gastric cardia/corpus and antrum were scored on an ordinal scale from 0 to 4 in increments of 0.5 by a single veterinary pathologist (A.B.R.) blinded to treatment groups. Paraffin-embedded sections were also stained with the Warthin-Starry silver staining method for detection of H.felis as previously described (Fox, J. G. et al., 2003).

## 1-methyl-5-((3-(3-(1-piperidinylmethyl)phenoxy)propyl)amino)-1H-1,2,4-triazole-3-ethanol [Loxtidine]
Reg I
  Reg I expression level: markedly reduced
[1]
  Maximal gastric acid output (MAO), effect in words: significantly inhibited
  Reduction of gastric acid output: 80%
[1]; listed as loxtidine
  Reduction of gastric acid output: 83%
[2]; 3 months treatment, hematoxylin and eosin
  Histological finding: gastric atrophy, hyperplasia, dysplasia: partially blocked
[2]; 3 months treatment, hematoxylin and eosin, listed as loxtidine
  Histological finding: gastric atrophy, hyperplasia, dysplasia: partial inhibition of gastric atrophy and foveolar hyperplasia
[2]; 3 months treatment, hematoxylin and eosin, listed as loxtidine alone
  Histological finding: gastric atrophy, hyperplasia, dysplasia: slight inhibition of Helicobacter-mediated gastric atrophy
[2]; 3 months treatment, n = 4
  Corpus histological score: Atrophy: 1.83 ± 0.29
  Corpus histological score: Dysplasia: 1.00 ± 0.50
  Corpus histological score: Hyperplasia: 1.33 ± 0.58
  Corpus histological score: Inflammation: 1.83 ± 0.29
[2]; 6 months treatment, hematoxylin and eosin
  Histological finding: gastric neoplasia / carcinogenesis: partial inhibition of progression to neoplasia
[2]; 6 months treatment, n = 5
  Corpus histological score: Atrophy: 2.67 ± 0.61
  Corpus histological score: Dysplasia: 2.17 ± 1.29a
  Corpus histological score: Hyperplasia: 2.42 ± 1.07a
  Corpus histological score: Inflammation: 2.33 ± 1.17

— patent publication US20050042283A1, “Histamine and CCK2/gastrin receptor blockade in the treatment of acid-peptic disease and cancer” (UNIVERSITY OF MASSACHUSETTS, priority 2003, published 2005)
